# In US12447137B2, “Composition for prevention, amelioration, or treatment of cancer” (EWHA UNIVERSITY—INDUSTRY COLLABORATION FOUNDATION, priority 2019, dated 2025):
# Where two headings read alike, the source gives them in different places.
# Assays:
# [1] = tested on: p-AMPK (Thr172); assay: AMPK activation by p-AMPK (Thr172) Western blot in 4T1 cells; format: cell-based, mouse; conditions: 24 hours
# Experimental: [3-1] The breast cancer cell line of Experimental Method 1 above was treated with the compound of Production Example 6 at a concentration of 0 to 30 μM, and then cultured for 24 hours. Thereafter, the cells were harvested and lysed in RIPA buffer, and the protein was electrophoresed by SDS-PAGE, and then the expression level of the protein was analyzed using antibodies specific for AMPK and phospho-AMPK (Thr172). GAPDH or β-actin was used as a loading control for protein quantification.
# (§1) [3-2] The three breast cancer cell lines (4T1, BT549, and MDA-MB-231) of Experimental Method 1 were treated with each of the compound of Production Example 6 and 13 compounds, including the compounds of Production Examples 1 to 5 and 8 to 15 having a similar structure (YE-01, 02, 03, 04, 05, 08, 09, 10, 11, 12, 13, 14 and 15), at a concentration of 10 μM, and then cultured for 24 hours. In addition, each of two types of gastric cancer cell lines, brain cancer cell lines and pancreatic cancer cell lines was treated with the compound of Production Example 6 or the compound of Production Example 8 having a similar structure at a concentration of 10 μM and then cultured for 12 hours. Thereafter, the cells were harvested and lysed in RIPA buffer, and the protein was electrophoresed by SDS-PAGE, and then the expression level of the protein was analyzed using antibodies specific for AMPK and phospho-AMPK (Thr172). GAPDH or β-actin was used as a loading control for protein quantification.
# [2] = tested on: MDA-MB-231 cell line; assay: Cell viability assay (WST-1); format: cell-based; conditions: Homo sapiens, MDA-MB-231, 24 h, read-out: cancer cell viability inhibited
# Experimental: (§2) [4-1-1] The breast cancer cell line of Experimental Method 1 was treated with 5-aminoimidazole-4-carboxamide ribonucleotide (AICAR) (which is not the compound of Production Example 6) or the compound of Production Example 6 at a concentration of 0 to 30 μM, and then cultured for 24 hours, 48 hours and 72 hours. Thereafter, the cultured cells were treated with WST-1 reagent, and then the absorbance at a wavelength of 450 nm was measured. Here, the WST-1 reagent allows the cell viability to be measured by changing the color of the culture medium depending on the level of the mitochondrial dehydrogenase present in the cell.
# (§3) [4-1-2] The breast cancer cell line 4T1, BT549 or MDA-MB-231 of Experimental Method 1 was treated with each of the compound of Production Example 6 and 13 compounds, including the compounds of Production Examples 1 to 5 and 8 to 15 having a similar structure (YE-01, 02, 03, 04, 05, 08, 09, 10, 11, 12, 13, 14 and 15), at a concentration of 0 to 50 μM, and then cultured for 24 hours. Each of three types of gastric cancer cell lines, brain cancer cell lines and pancreatic cancer cell lines was treated with the compound of Production Example 6 or the compound of Production Example 8 having a similar structure at a concentration of 0 to 50 μM, and then cultured for 24 hours. Thereafter, the cultured cells were treated with WST-1 reagent according to the manufacturer's instruction, and after a certain time, the absorbance at a wavelength of 450 nm was measured. Here, the WST-1 reagent allows the cell viability to be measured by changing the color of the culture medium depending on the level of the mitochondrial dehydrogenase present in the cell.
# [3] = tested on: 4T1 cell line; assay: Cell viability assay (WST-1); format: cell-based; conditions: Mus musculus
# Experimental: as §2, §3
# [4] = tested on: BT549 cell line; assay: Cell viability assay (WST-1); format: cell-based; conditions: Homo sapiens
# Experimental: as §2, §3
# [5] = tested on: 4T1 cell line; assay: Clonogenic assay; format: cell-based, mouse; conditions: 4T1, 10 μM; FIG. 2B
# Experimental: The breast cancer cell line of Experimental Method 1 was dispensed into a 6-well plate at a density of 1 to 2×10^3 cells/well. After the cells were sufficiently attached, they were treated with the compound of Production Example 6 at a concentration of 0 to 30 μM and cultured for 10 days to 14 days. Next, the cultured cells were fixed with 4% formaldehyde and stained with 1% crystal violet, and the colonies were counted under a microscope.
# [6] = tested on: p-AMPK (Thr172); assay: AMPK activation by p-AMPK (Thr172) Western blot in pancreatic cancer cell lines; format: cell-based, human; conditions: 10 μM, 12 hours, compared to untreated group
# Experimental: as §1
# [7] = tested on: p-AMPK (Thr172); assay: AMPK activation by p-AMPK (Thr172) Western blot in gastric cancer cell lines; format: cell-based, human; conditions: 10 μM, 12 hours, compared to untreated group
# Experimental: as §1
# [8] = tested on: 4T1-luc orthotopic graft (fat pad, s.c.); assay: Tumor (lung) metastasis in orthotopic animal model, IVIS luminescence; format: in vivo, mouse; conditions: 20 mg/kg intraperitoneal at 2-day intervals; compared to Vehicle; FIG. 9A, 9B
# Excerpt: After 4-week-old athymic nude mice (female) were purchased, only healthy mice were selected while the mice were adapted to the environment of the animal breeding room for 7 days. For identification of each mouse, the ears were marked using an ear punch. In addition, the breeding box was identified by attaching a mouse identification card describing the test number, test substance name, test item, receipt date, test date, test content, and the person in charge of the test. The environment of the animal breeding room was maintained at a temperature of 22±3° C., a relative humidity of 50±20%, 10 to 15 ventilations/hour, a 12-hour light (8:30 to 20:30)/dark cycle, and an illuminance of 150 to 300 lux. In addition, the animals were fed feed and drinking water during the breeding period, and quarantined during the acclimatization and testing periods. […]
# During a period ranging from the day the mouse breast cancer cell line 4T1-luc cell line was injected to the end of the experiment (dissection date), lung metastasis of the cancer cell line was checked at intervals of 1 to 2 days. After the animal model was anesthetized by inhalation with 2.5% isoflurane, luminescence intensity was measured using an in-vivo imaging system (IVIS). […]
structure (smiles),measurement,setting,value
"COc1ccc(OC)c(/C=C/C(=O)c2ccc(NS(=O)(=O)c3ccc(Cl)cc3)cc2)c1 [Production Example 6, (E)-4-chloro-N-(4-(3-(2,5-dimethoxyphenyl)acryloyl)phenyl)benzenesulfonamide]",phospho-AMPK protein,"[1]; 4T1, 0 to 30 μM, FIG. 5",increased in a concentration-dependent manner
same,p-AMPK level,"[1]; 4T1, 10 μM, FIG. 3B",effectively increased
same,cytotoxicity at 10 µM,[2],≥ 50%
same,cytotoxicity at 10 µM,"[3]; 4T1, 24 h, read-out: cancer cell viability inhibited",≥ 50%
same,cytotoxicity at 10 µM,"[3]; 4T1, read-out: cell viability inhibited",≥ 50%
same,cytotoxicity at 10 µM,"[4]; BT-549, 24 h, read-out: cancer cell viability inhibited",≥ 50%
same,cytotoxicity at 10 µM,"[4]; BT-549, read-out: cell viability inhibited",≥ 50%
same,colony formation,[5],significantly reduced
same,expression of p-AMPK,[6],increased
same,expression of p-AMPK,[7],increased
same,luminescence intensity in the lung (4T1-luc lung metastasis),[8],significantly decreased
